ChEMBL document CHEMBL1201862, “PubChem BioAssay data set” (2004)
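Exposure lasted 48 hours, with cells grown in 96-well plates and compounds tested at five concentrations. The concentration for 50% growth inhibition is given as GI50.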 The source made the active and inactive calls. No stated cut-off is given here; in the data, active = GI50 up to about 1.1 µM and inactive = higher.

Tests used:
Experiment in all cases: NCI anticancer screen, dose series, 48 h
[1] = system: SK-MEL-5
[2] = system: CAKI-1
[3] = system: OVCAR-5
[4] = system: M14
[5] = system: SR
[6] = system: SK-MEL-2
[7] = system: U-251
[8] = system: RXF 393
[9] = system: OVCAR-8
[10] = system: SK-OV-3
[11] = system: NCI-H226
[12] = system: OVCAR-3
[13] = system: HOP-92
[14] = system: UACC-62
[15] = system: SF-539
[16] = system: A549
[17] = system: HOP-62
[18] = system: K562
[19] = system: KM12
[20] = system: EKVX
[21] = system: CCRF-CEM
[22] = system: NCI-H460
[23] = system: NCI-H23
[24] = system: MCF7
[25] = system: NCI/ADR-RES
[26] = system: HCC 2998
[27] = system: RPMI-8226
[28] = system: SNB-75
[29] = system: UO-31
[30] = system: BT-549
[31] = system: SK-MEL-28
[32] = system: SW-620
[33] = system: T47D
[34] = system: MOLT-4
[35] = system: SNB-19
[36] = system: SN12C
[37] = system: LOX IMVI
[38] = system: MDA-MB-435
[39] = system: HCT-116
[40] = system: SF-295
[41] = system: OVCAR-4
[42] = system: COLO 205
[43] = system: MDA-MB-231
[44] = system: HT-29
[45] = system: IGROV-1
[46] = system: SF-268
[47] = system: MDA-N
[48] = system: TK-10
[49] = system: ACHN
[50] = system: UACC-257
[51] = system: DU-145
[52] = system: PC-3
[53] = system: Malme-3M
[54] = system: HCT-15
[55] = system: NCI-H522
[56] = system: Hs-578T
[57] = system: 786-0

## COC(=O)N1CC2C3C4CC(C(c5ccccc5)=C4c4ccccc4)C3C21 (stereo not given)
[1]
  GI50: 11.5 µM (inactive)
[2]
  GI50: 12.6 µM (inactive)
[3]
  GI50: 27.7 µM (inactive)
[4]
  GI50: 26.8 µM (inactive)
[5]
  GI50: 11.1 µM (inactive)
[6]
  GI50: 19.8 µM (inactive)
[7]
  GI50: 13.2 µM (inactive)
[8]
  GI50: 17.7 µM (inactive)
[9]
  GI50: 17.8 µM (inactive)
[10]
  GI50: 20 µM (inactive)
[11]
  GI50: 14 µM (inactive)
[12]
  GI50: 15.5 µM (inactive)
[13]
  GI50: 11.7 µM (inactive)
[14]
  GI50: 13.2 µM (inactive)
[15]
  GI50: 13.8 µM (inactive)
[16]
  GI50: 18 µM (inactive)
[17]
  GI50: 19.3 µM (inactive)
[18]
  GI50: 6.04 µM (inactive)
[19]
  GI50: 14.6 µM (inactive)
[20]
  GI50: 13.2 µM (inactive)
[21]
  GI50: 14.9 µM (inactive)
[22]
  GI50: 14.5 µM (inactive)
[23]
  GI50: 20.9 µM (inactive)
[24]
  GI50: 20 µM (inactive)
[25]
  GI50: 16.8 µM (inactive)
[26]
  GI50: 16.3 µM (inactive)
[27]
  GI50: 8.59 µM (inactive)
[28]
  GI50: 21.8 µM (inactive)
[29]
  GI50: 12.8 µM (inactive)
[30]
  GI50: 16 µM (inactive)
[31]
  GI50: 19.9 µM (inactive)
[32]
  GI50: 18.1 µM (inactive)
[33]
  GI50: 9.82 µM (inactive)
[34]
  GI50: 12.5 µM (inactive)
[35]
  GI50: 21.1 µM (inactive)
[36]
  GI50: 17.6 µM (inactive)
[37]
  GI50: 12.2 µM (inactive)
[38]
  GI50: 15.2 µM (inactive)
[39]
  GI50: 11.9 µM (inactive)
[40]
  GI50: 13.4 µM (inactive)
[41]
  GI50: 13.1 µM (inactive)
[42]
  GI50: 23.1 µM (inactive)
[43]
  GI50: 7.35 µM (inactive)
[44]
  GI50: 17.1 µM (inactive)
[45]
  GI50: 17.5 µM (inactive)
[46]
  GI50: 16.3 µM (inactive)
[47]
  GI50: 20.4 µM (inactive)
[48]
  GI50: 15.8 µM (inactive)
[49]
  GI50: 23.3 µM (inactive)
[50]
  GI50: 13.7 µM (inactive)
[51]
  GI50: 14.7 µM (inactive)
[52]
  GI50: 10 µM (inactive)

## COC(=O)c1nc(Cl)nc(Cl)c1Cl
[1]
  GI50: 18.3 µM (inactive)
[2]
  GI50: 18.2 µM (inactive)
[3]
  GI50: 23.5 µM (inactive)
[53]
  GI50: 20.8 µM (inactive)
[4]
  GI50: 20.7 µM (inactive)
[5]
  GI50: 15.1 µM (inactive)
[7]
  GI50: 26.1 µM (inactive)
[8]
  GI50: 14.4 µM (inactive)
[9]
  GI50: 21 µM (inactive)
[10]
  GI50: 41.9 µM (inactive)
[11]
  GI50: 27 µM (inactive)
[12]
  GI50: 2.02 µM (inactive)
[13]
  GI50: 19.4 µM (inactive)
[14]
  GI50: > 10 µM (inactive)
[15]
  GI50: 24.5 µM (inactive)
[16]
  GI50: 44.1 µM (inactive)
[17]
  GI50: 30.2 µM (inactive)
[18]
  GI50: 12.2 µM (inactive)
[19]
  GI50: 22.2 µM (inactive)
[21]
  GI50: 6.49 µM (inactive)
[22]
  GI50: 32.2 µM (inactive)
[23]
  GI50: 44.7 µM (inactive)
[24]
  GI50: 28.2 µM (inactive)
[25]
  GI50: 33.8 µM (inactive)
[26]
  GI50: 22 µM (inactive)
[27]
  GI50: 1.29 µM (inactive)
[28]
  GI50: 87.7 µM (inactive)
[29]
  GI50: 19.2 µM (inactive)
[54]
  GI50: 21.9 µM
[31]
  GI50: 21.1 µM (inactive)
[32]
  GI50: 16.2 µM (inactive)
[33]
  GI50: 24.3 µM (inactive)
[34]
  GI50: 10.5 µM (inactive)
[35]
  GI50: 83.8 µM (inactive)
[36]
  GI50: 20.9 µM (inactive)
[55]
  GI50: 19.3 µM (inactive)
[37]
  GI50: 13.4 µM (inactive)
[38]
  GI50: 15.8 µM (inactive)
[39]
  GI50: 18.2 µM (inactive)
[40]
  GI50: 42.3 µM (inactive)
[41]
  GI50: 19.5 µM (inactive)
[42]
  GI50: 18.6 µM (inactive)
[43]
  GI50: 17.6 µM (inactive)
[44]
  GI50: 22.5 µM (inactive)
[45]
  GI50: 22.8 µM (inactive)
[56]
  GI50: 21.8 µM (inactive)
[46]
  GI50: 19.1 µM (inactive)
[47]
  GI50: 29.5 µM (inactive)
[48]
  GI50: 21.2 µM (inactive)
[57]
  GI50: 17.3 µM (inactive)
[49]
  GI50: 14.4 µM (inactive)
[51]
  GI50: 70.3 µM (inactive)
[52]
  GI50: 14.4 µM (inactive)

## NC1CCC[C@@H](O)[C@H]1O (stereo not given in full)
[53]
  GI50: > 100 µM (inactive)
[11]
  GI50: > 100 µM (inactive)
[15]
  GI50: > 100 µM (inactive)
[21]
  GI50: > 100 µM (inactive)
[29]
  GI50: 76.7 µM (inactive)
[30]
  GI50: > 100 µM (inactive)
[35]
  GI50: > 100 µM (inactive)
[55]
  GI50: > 100 µM (inactive)
[42]
  GI50: > 100 µM (inactive)
[45]
  GI50: > 100 µM (inactive)
